# From paper PMC12673918, “Design, Synthesis, and Selective Antiproliferative Activity of Indolizine Derivatives as Microtubule Destabilizers” (Archiv Der Pharmazie, 2025)
# Read-outs that look alike come from different tables or passages of the source.
# Legend:
# Assay type in all cases: cell-based
# [1] = target: T1, human P2X4 receptor (Homo sapiens, UniProt Q99571); assay: Ca2+‐flux assay for the hP2X4 receptor; conditions: read-out: % Inhibition of P2X4R at 10 µM compounds’ concentration
# T1 construct: expressed in transfected cells; host or cells: human 1321N1 astrocytoma cells
# T1 sequence (Q99571 1-388): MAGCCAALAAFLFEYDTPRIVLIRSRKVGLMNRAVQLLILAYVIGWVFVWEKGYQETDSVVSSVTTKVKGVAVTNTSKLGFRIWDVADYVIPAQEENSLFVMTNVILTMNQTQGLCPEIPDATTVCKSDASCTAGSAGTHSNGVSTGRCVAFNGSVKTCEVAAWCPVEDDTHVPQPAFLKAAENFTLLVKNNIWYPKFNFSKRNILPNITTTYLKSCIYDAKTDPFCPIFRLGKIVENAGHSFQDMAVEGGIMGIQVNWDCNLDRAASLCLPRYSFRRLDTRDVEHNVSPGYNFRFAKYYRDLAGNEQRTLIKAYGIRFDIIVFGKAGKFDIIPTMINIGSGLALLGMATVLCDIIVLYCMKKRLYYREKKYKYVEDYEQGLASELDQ
# Experimental: Human 1321N1 astrocytoma cells stably expressing the human P2X4 receptor (generated in‐house) were cultured in Dulbecco's Modified Eagle Medium supplemented with 9% (v/v) FCS, 1% (v/v) Penicillin/Streptomycin (10000 I.U./mL, 10 mg/mL in 0.9% NaCl) and puromycin (1 µg/mL) as a selection antibiotic at 37°C and 5% CO2. Cells were subcultured in cell culture 75 cm^2 flasks and split every 2–4 days (1:5; 1:6) once confluent.
# 1321N1 cells stably expressing human P2X4 receptor were seeded into black‐walled 96‐well plates (Thermo Fisher Scientific) at 2.5 × 10^4 cells/well and incubated at 37°C for 24–48 h. All test compounds were diluted in assay buffer solution (SBS: 135 mM NaCl; 5 mM KCl; 1 mM MgCl2.6 H2O; 1.8 mM CaCl2; 5.6 mM D‐Glucose; 10 mM HEPES, 0.1% (m/v) BSA, 0.05% (m/v) gelatine, 2.3 mM probenecid). The culture medium was removed, and 100 µL of 4 μM fluorescent Ca^2+ indicator Calbryte520AM in SBS was added and incubated at 37°C for 1 h. The dye solution was then removed, 100 µL of SBS solution and 50 µL of antagonist dilutions (10^–5–10^–9 M) in SBS were added, and the cells were incubated at room temperature for an extra 30 min. Finally, 50 µL of ATP (at a concentration of the previously determined EC50‐ value) was added by using FlexStation 3 Multi‐Mode Microplate Reader (Molecular Devices, San Jose, CA, USA, Software SoftMax7 Pro). The changes in intracellular Ca^2+ ion concentrations were monitored over 200 s (20 s baseline) by measuring the fluorescence signal at λ ex = 494 nm and λ em = 516 nm ([…] cut‐off). The concentration‐dependent decrease in Ca^2+‐flux, expressed as RFU, was plotted against the concentrations of the compounds.
# [2] = system: GNP15; assay: Resazurin cellular growth inhibition, GNP15; conditions: 72 hours, triplicate; read-out: IC50 (nM, Cellular growth inhibition) GNP15 (supplement)
# Experimental: ^b IC50 values were determined using the same resazurin-based assay, with fluorescence measurements performed after 72 hours of treatment. These experiments were carried out in triplicate.
# [3] = system: CAL‐27 (oral carcinoma); assay: Resazurin cell viability assay, CAL‐27; conditions: Homo sapiens, CAL-27; for inhibition at 50 µM: read-out: % Cellular growth inhibition (at 50 µM) CAL‐27
# In short: (§1)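 Cells in DMEM/10% FBS, 1 × 10^3 per well, adhered overnight, then treated with compounds (0–50 µM) for 72 h. Viability read as fluorescence (ex 530, em 590 nm) after 4 h with 44 µM resazurin. % growth inhibition at 50 µM and IC50 by nonlinear regression, triplicates.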
# [4] = system: HGC‐27 (gastric carcinoma); assay: Resazurin cell viability assay, HGC‐27; conditions: for inhibition at 50 µM / IC50: Homo sapiens, HGC-27; for inhibition at 50 µM: read-out: % Cellular growth inhibition (at 50 µM) HGC‐27; for decrease in IC50 relative to 7f (HIT): HGC‐27
# In short: as §1
# [5] = system: BT‐20 (breast carcinoma); assay: Resazurin cell viability assay, BT‐20; conditions: Homo sapiens, BT-20; for inhibition at 50 µM: read-out: % Cellular growth inhibition (at 50 µM) BT‐20
# In short: as §1
# [6] = system: CAL‐27, BT‐20 and HGC‐27 cancer cell lines; assay: Resazurin antiproliferative screening, cancer cell line panel; conditions: for level of inhibition in the 50 µM screening: 70% inhibition threshold; for IC50: range over CAL‐27, BT‐20, HGC‐27, read-out: IC50 values across cancer cell lines
# Experimental: The tongue squamous cell carcinoma cell line CAL‐27 (ATCC CRL‐2095), breast carcinoma BT‐20 (ATCC HTB‐19), gastric carcinoma HGC‐27 (BCRJ Code 0310), and normal oral fibroblast OHMF (culture of fibroblasts derived from human oral healthy mucosa, approved by the Research Ethics Committee of the University of São Paulo, Campus of Ribeirão Preto, Brazil (with protocol number 049) were cultured in DMEM medium (DMEM, Sigma‐Aldrich, St. Louis, MO, USA) supplemented with 10% fetal bovine serum and a solution of penicillin (100 U/mL) and streptomycin (100 μg/mL). The cultures were maintained in a humidified incubator with 5% CO₂ at 37°C.
# Cell viability was analyzed using the resazurin assay. For this, cells were seeded in 96‐well plates (1 × 10^3 cells per well) and incubated at 37°C with 5% CO₂ overnight for cell adhesion. Subsequently, the cells were treated with different compounds (0–50 µM) for 72 h. After treatment, the medium was replaced with phenol‐free DMEM medium (Sigma‐Aldrich) containing resazurin at a concentration of 44 µM (Sigma‐Aldrich). After incubation for 4 h at 37°C, fluorescence detection was performed (excitation 530/25 nm, emission 590/35 nm) using a microplate fluorimeter (Synergy 2, Biotek). Initial cell growth inhibition assays were performed in triplicate or quadruplicate, while IC50 determinations were conducted in triplicate. Data were plotted, and IC₅₀ values were determined by nonlinear regression using GraphPad Prism software 9.0.
# [7] = system: BT‐20 breast cancer cells; assay: Cell‐cycle assay by flow cytometry; conditions: 2.5 µM, 24 h
# Experimental: BT‐20 cells were seeded in 10 cm plates (1.5 × 10⁶ cells/plate) and incubated at 37°C with 5% CO₂ for 24 h. Subsequently, the cells were treated with different compounds at a concentration of 2.5 µM for 24 h. After treatment, the cells were collected by centrifugation and fixed in cold 70% ethanol for 1 h at 4°C. The cells were then washed, collected by centrifugation, and treated with RNase A (100 μg/mL, Sigma‐Aldrich) for 30 min at 37°C, followed by staining with propidium iodide (50 μg/mL) for 15 min at 37°C. Finally, the percentages of cells in each phase of the cell cycle were determined using FACSCalibur flow cytometry (BD Biosciences—San Jose, CA, USA). Cell‐cycle distribution was analyzed using ModFit LT V3.3 software.
# [8] = 72 h, mean ± SD, n = 3, read-out: IC50 (nM) CAL‐27
# [9] = 72 hours, triplicate, read-out: IC50 (nM, Cellular growth inhibition) CAL-27 (supplement)
# [10] = 72 h, mean ± SD, n = 3, read-out: IC50 (nM) HGC‐27
# [11] = 72 hours, triplicate, read-out: IC50 (nM, Cellular growth inhibition) HGC-27 (supplement)
# [12] = 72 h, mean ± SD, n = 3, read-out: IC50 (nM) BT‐20
# [13] = 72 hours, triplicate, read-out: IC50 (nM, Cellular growth inhibition) BT-20 (supplement)
Structure (SMILES),inhibition at 10 µM [1],IC50 [2],"inhibition at 50 µM ([3]; 72 h, mean ± SD, n = 3)","IC50 [3, 8]","IC50 [3, 9]","inhibition at 50 µM ([4]; 72 h, mean ± SD, n = 3)","IC50 [4, 10]","IC50 [4, 11]","inhibition at 50 µM ([5]; 72 h, mean ± SD, n = 3)","IC50 [5, 12]","IC50 [5, 13]",level of inhibition in the 50 µM screening [6],IC50 [6],decrease in IC50 relative to 7f (HIT) [4],cell‐cycle distribution [7]
"COc1ccc2c(C(=O)c3ccc(Cl)c(Cl)c3)ccn2c1 [Compound 7e, (6‐methoxyindolizin‐1‐yl)(3,4‐dichlorophenyl)methanone]",-3%,> 50000 nM,70 ± 3.8%,12400 nM,11900 nM,68 ± 3.4%,11900 nM,14100 nM,53 ± 1.8%,14100 nM,12400 nM,,,,
"COc1ccc2c(C(=O)c3cc(OC)c(OC)c(OC)c3)c(C)cn2c1 [Compound 8a, (6‐methoxy‐2‐methylindolizin‐1‐yl)(3,4,5‐trimethoxyphenyl)methanone]",5%,> 50000 nM,64 ± 2.7%,325 ± 92 nM,410 ± 212 nM,41 ± 4.3%,410 ± 212 nM,370 ± 28 nM,52 ± 5%,370 ± 28 nM,325 ± 92 nM,,,,
"COc1ccc2c(C(=O)c3cc(OC)c(OC)c(OC)c3)c(C(C)(C)C)cn2c1 [Compound 8b, [2‐(Tert‐Butyl)‐6‐Methoxyindolizin‐1‐yl](3,4,5‐Trimethoxyphenyl)Methanone]",-6%,,84 ± 3.2%,,,46 ± 6%,,,62 ± 0.5%,,,89.5% to 73.1,,,
"COc1ccc2c(C(=O)c3cc(OC)c(OC)c(OC)c3)c(C(F)(F)F)cn2c1 [Compound 8e, [6‐methoxy‐2‐(trifluoromethyl)indolizin‐1‐yl](3,4,5‐trimethoxyphenyl)methanone]",-9%,> 50000 nM,76 ± 1.3%,75 ± 21 nM,117 ± 32 nM,53 ± 2.2%,117 ± 32 nM,105 ± 49 nM,62 ± 2.3%,105 ± 49 nM,75 ± 21 nM,89.5% to 73.1,47 to 117 nM,four‐ to sixfold decrease,significant accumulation of cells in the G2/M phase
"CCCc1cn2cc(OC)ccc2c1C(=O)c1cc(OC)c(OC)c(OC)c1 [Compound 8h, (6‐methoxy‐2‐propylindolizin‐1‐yl)(3,4,5‐trimethoxyphenyl)methanone]",6%,> 50000 nM,90 ± 1.8%,47 ± 18 nM,75 ± 35 nM,70 ± 3.3%,75 ± 35 nM,90 ± 56 nM,71 ± 2.8%,90 ± 56 nM,47 ± 18 nM,89.5% to 73.1,47 to 117 nM,four‐ to sixfold decrease,significant accumulation of cells in the G2/M phase
"COc1ccc2c(C(=O)c3cc(OC)c(OC)c(OC)c3)c(-c3ccc(C)cc3)cn2c1 [Compound 8j, [6‐methoxy‐2‐(p ‐tolyl)indolizin‐1‐yl](3,4,5‐trimethoxyphenyl)methanone]",0%,> 50000 nM,73 ± 4%,300 ± 85 nM,465 ± 35 nM,71 ± 2%,465 ± 35 nM,,61 ± 2%,465 ± 35 nM,300 ± 85 nM,89.5% to 73.1,,,
"COc1ccc(-c2cn3cc(OC)ccc3c2C(=O)c2cc(OC)c(OC)c(OC)c2)cc1 [Compound 8k, [6‐methoxy‐2‐(4‐methoxyphenyl)indolizin‐1‐yl](3,4,5‐trimethoxyphenyl)methanone]",7%,> 50000 nM,73 ± 4.5%,690 ± 156 nM,880 ± 14 nM,74 ± 2%,880 ± 14 nM,800 ± 127 nM,64 ± 1.5%,800 ± 127 nM,690 ± 156 nM,89.5% to 73.1,,,
